Data set [1] relates to PP-2A. As to the kind of experiment: PP inhibition assay, PP-2A. It counts as biochemical. The following applies: for IC50: read-out: in vitro inhibition (IC50) against PP-2A. The method, then:
(§1) IR spectra were measured on a Bruker EQUINOX 55/S FT-IR/NIR spectrophotometer (Ettlingen, DE). Optical rotations were determined on a Perkin-Elmer 241 instrument at the sodium D line (589 nm). High-resolution mass spectrometry (HRMS) analyses were acquired on an IonSpec HiRes MALDI FT mass spectrometer (Lake Forest, Calif.) for […] or on an Agilent 1100 series LC/MSD Trap SL for HRESIMS (Santa Clara, Calif.). NMR data were recorded on a Varian Unity Inova 400 or 500 MHz NMR spectrometer (Varian, Inc., Palo Alto, Calif.). ^1H and ^13C NMR chemical shifts were referenced to residual solvent signals: δH 7.26 ppm and […] for CDCl3. ^1H-^1H COSY, HMQC, HMBC, HETLOC, gHSQMBC, and gDQCOSY were performed using either standard Varian pulse sequences or literature pulse sequences (Uhrin et al., 1998; Williamson et al., 2000). High-performance liquid chromatography (HPLC) analysis was carried out on a Varian HPLC system equipped with ProStar 210 pumps and a photodiode detector. Mobile phases used were buffer A (H2O) and buffer B (CH3CN). Analytical and semipreparative HPLC columns used were Alltech Alltima C18 columns, 250×4.6 mm, 5 μm and 250×10 mm, 5 respectively. Cytotoxity assays and PP inhibition assays for TTN and related analogues were performed as previously described for compound TTM and related congeners (Ju et al., 2009). Medium components and all other chemical solvents and reagents were purchased from Fisher Scientific (Fairlawn, N.J.). Silica gel 60 RP-18 (230-400 mesh, EMD Chemical Inc., Gibbstown, N.J.) was used for standard benchtop column chromatography. Amberlite XAD-16 resin was purchased from Sigma.
(§2) Compounds 3-7 were subjected to PP inhibition and cytotoxicity assays with 1 as a control (Ju et al., 2009). Assays focused specifically on the inhibition of PP-1 and PP-2A (Table 4), while cytotoxicity assays exploited the use of selected human cancer cell lines Du145, MCF7, and HCT-115 (Table 5).

In data set [2] the test system is PP2A. The following applies: literature; cited from earlier work.
Data set [3] relates to PP1. The following applies: literature; cited from earlier work.
For data set [4], the system named is PP-1. In words: PP inhibition assay, PP-1. It counts as biochemical. The following applies: PP-1 over PP-2A. The protocol: as §1, §2
The subject of data set [5] is T1, PP-1.
T1 construct: other: less efficient / worse than TTN
As to the kind of experiment: PP inhibition assay, PP-1. The following applies: for IC50: read-out: in vitro inhibition (IC50) against PP-1; for PP-1 inhibition relative to TTN: less efficient / worse than TTN. It counts as biochemical. The protocol:
as §1, §2

Data set [6] deals with activated T cells. The following applies: literature (Shim et al., 2002); cited from earlier work.
The subject of data set [7] is Du145, MCF7, and HCT-115. As to the kind of experiment: cytotoxicity against selected human cancer cell lines. It counts as cell-based. The following applies: Du145, MCF7, HCT-115. The method, then: as §1
Compounds 3-7 were subjected to PP inhibition and cytotoxicity assays with 1 as a control (Ju et al., 2009). Assays focused specifically on the inhibition of PP-1 and PP-2A (Table 4), while cytotoxicity assays exploited the use of selected human cancer cell lines Du145, MCF7, and HCT-115 (Table 5). […]

The nature of data set [8]: in vitro cytotoxicity assay, HCT-115. The following applies: HCT-115 cells; HCT-115 human cancer cell line. The class given is cell-based. The method, then:
as §1, with “Medium components and all other chemical solvents and reagents were purchased from Fisher Scientific (Fairlawn, N.J.). Silica gel 60 RP-18 (230-400 mesh, EMD Chemical Inc., Gibbstown, N.J.) was used for standard benchtop column chromatography. Amberlite XAD-16 resin was purchased from Sigma.” left out

Data set [9] is described as follows: in vitro cytotoxicity assay, Du145. The class given is cell-based. The following applies: Du145 cells; Du145 human cancer cell line. The protocol:
as §1, with “Medium components and all other chemical solvents and reagents were purchased from Fisher Scientific (Fairlawn, N.J.). Silica gel 60 RP-18 (230-400 mesh, EMD Chemical Inc., Gibbstown, N.J.) was used for standard benchtop column chromatography. Amberlite XAD-16 resin was purchased from Sigma.” left out

Data set [10] is described as follows: in vitro cytotoxicity assay, MCF7. The class given is cell-based. The following applies: MCF7 cells; MCF7 human cancer cell line. The method, then:
as §1, with “Medium components and all other chemical solvents and reagents were purchased from Fisher Scientific (Fairlawn, N.J.). Silica gel 60 RP-18 (230-400 mesh, EMD Chemical Inc., Gibbstown, N.J.) was used for standard benchtop column chromatography. Amberlite XAD-16 resin was purchased from Sigma.” left out

Usually IC50 stands for the concentration that gives 50% inhibition.

For the compound “Tautomycetin [TTN (1), reference compound]”, the IC50 in data set [1] is 400 ± 40 nM; in [2] it was 62 nM; in [3], 1.6 nM; in data set [5], 15 ± 0.0008 nM. The PP-1 selectivity result in [4] is listed as “about 27 fold”. Besides, the “T cell proliferation inhibited at concentrations lower than those needed for maximal inhibition by cyclosporine A” value in data set [6] was 100 fold.
In the case of `CO[C@H]([C@H](O)CC(=O)[C@@H](C)[C@@H](O)CC[C@@H](C)[C@@H]1O[C@]2(CC[C@@H](C)[C@H](CC[C@H](C)C(C)=O)O2)CC[C@@H]1C)[C@H](OC(=O)C[C@@H](O)C1=C(C)C(=O)OC1=O)C(C)C` [TTM, tautomycin], in [2], the IC50 is 22 to 32 nM. In data set [3], the IC50 is 22 to 32 nM and the “preference for PP1 inhibition relative to PP2A” value is recorded as “slight preference for PP1”.
Take `CC/C(=C\CC[C@H](C)C[C@@H](C)CC[C@H](O)[C@H](C)C(=O)C[C@@H](O)[C@H](C)[C@@H](C)OC(=O)C[C@@H](O)C1=C(C)C(=O)OC1=O)C(O)CC(=O)O` (stereo partly shown) [TTN F-1 (3)]: in data set [1], the “PP-2A inhibition relative to TTN” value was “about the same potency as TTN” and the IC50 is 640 ± 80 nM. For the same compound, the “cytotoxicity (in words)” value in [7] is “inactive”. Besides, in data set [5], the “PP-1 inhibition relative to TTN” value was “approximately one order of magnitude” and the IC50 is 170 ± 10 nM.
Taken in the same sequence, the figures for `CCC(/C=C/C(=O)O)=C\C(O)C[C@H](C)C[C@@H](C)CC[C@H](O)[C@H](C)C(=O)C[C@@H](O)[C@H](C)[C@@H](C)OC(=O)C[C@@H](O)C1=C(C)C(=O)OC1=O` (stereo partly drawn) [TTN D-2 (5)] were “about two orders of magnitude worse”, 44000 ± 100 nM, “inactive”, “approximately three orders of magnitude worse” and 9800 ± 100 nM.
On to `CCC(C=CC(=O)O)=CC(O)CC(C)CC(C)CCC(O)C(C)C(=O)CC(O)C(C)C(C)OC(=O)CC(O)C1=C(C)C(=O)OC1=O` [TTN D-3 (6)], for which the IC50 came out at 16000 ± 3000 nM in [8]; 14000 ± 3000 nM in [9]; 800 ± 60 nM in data set [1]; 11000 ± 3000 nM in [10]; 210 ± 30 nM in data set [5]. Moreover, the “PP-2A inhibition relative to TTN” value in data set [1] is listed as “about the same potency as TTN”. Besides, the “PP-1 inhibition relative to TTN” value in data set [5] is listed as “approximately one order of magnitude”.
For `CCC(/C=C/C(=O)O)=C\CC[C@H](C)C[C@@H](C)CC[C@H](O)[C@H](C)C(=O)C[C@@H](O)[C@H](C)[C@@H](C)OC(=O)C[C@@H](O)C1=C(C)C(=O)OC1=O` [TTN D-1 (4)], in data set [1], the “PP-2A inhibition relative to TTN” value is “about the same potency as TTN” and the IC50 is 520 ± 50 nM. Moreover, in [7], the “cytotoxicity (in words)” value was “inactive”. Moreover, in data set [5], the “PP-1 inhibition relative to TTN” value is given as “approximately one order of magnitude” and the IC50 came to 130 ± 20 nM.
Turning to `CCC(C=CC(=O)O)=CC(=O)CC(C)CC(C)CCC(O)C(C)C(=O)CC(O)C(C)C(C)OC(=O)CC(O)C1=C(C)C(=O)OC1=O` [TTN D-4 (7)], the IC50 was 18000 ± 3000 nM in data set [8], 13000 ± 4000 nM in [9], 920 ± 40 nM in data set [1] and 17000 ± 3000 nM in [10]. Moreover, in data set [1], the “PP-2A inhibition relative to TTN” value was “about the same potency as TTN”. Besides, in data set [5], the “PP-1 inhibition relative to TTN” value is “approximately one order of magnitude”.

(Values after patent publication US8580977B2 (priority 2010, dated 2013).)
